Patent US10729770B2, “Bacterial influence on regulation of appetite via ClpB protein mimicry of alpha-MSH” (priority 2013, dated 2020)

Assays:
α-MSH [1] = molecular target: T1, α-MSH (Homo sapiens, UniProt P01189); test: Affinity kinetics assay (surface plasmon resonance, BIAcore) of mouse IgG for α-MSH; assay type: binding; details: ClpB-immunized mice compared with controls
T1 construct: endogenous peptide hormone of the melanocortin family, with a tridecapeptide structure; purchased Bachem AG
Procedure: (§2) IgG purification and affinity assay were performed according to a published protocol (Legrand et al., Protoc Exch 2014, doi:10.1038/protex2014.004). Extraction of plasma globulins was done by plasma acidification and separation on C18 SEP column (Phoenix Pharmaceuticals, Burlingame, Calif., USA), then 500 μl of mouse plasma was mixed with 500 μl of buffer A (1% trifluoroacetic acid in water). The column was activated in 1 ml of buffer B (60% acetonitrile in 1% trifluoroacetic acid) by 3 min centrifugation with 700 r.p.m. and rinsed three times with 3 ml of buffer A. Diluted plasma (1:1 in buffer A) was added to the column and the effluent (1 ml) was saved (frozen at −20° C.) for further purification of IgG. Total IgG were purified from the effluents of mouse plasma samples using the Melon Gel Kit (Thermo Fisher Scientific, Rockford, Ill., USA). Plasma effluents diluted 1:4 in kit's purification buffer was added on washed melon gel deposited in a column. Column was spun 1 min at 6000 r.p.m., and the IgG containing effluent was saved and frozen at −20° C. before lyophilization. […]
(§3) Between injections of each sample, the binding surface was regenerated with 10 mM NaOH, resulting in the same baseline level of the sensorgram. The affinity kinetic data were analyzed using BiaEvaluation 4.1.1 program (GE Healthcare). […]

[2] = Locomotor activity and anxiety tests (open field, elevated O-maze) in immunized mice; assay type: in vivo
Procedure: After the feeding study, mice were placed in individual mouse-holding cages with food and water available ad libitum, and were analyzed for locomotor activity and anxiety in 0-maze (Med Associate, Inc., St Albans, Vt., USA) tests performed during 2 consecutive days. Two hours after the 0-maze test, mice were killed by decapitation in a guillotine and trunk blood was collected into EDTA-containing tubes. Plasma was separated by centrifugation at 3500 r.p.m. ([…]) for 10 min at 4° C. and stored at −80° C. before assay.
After feeding study in the BioDAQ cages, mice were analyzed for locomotor activity using a Versamax Animal Activity Monitor (AccuScan Instruments, Inc., Columbus, Ohio, USA). Next day after the locomotor activity test, all mice were tested for their anxiety in an elevated O-maze. The elevated-O-maze is a variation of more commonly used elevated plusmaze pharmacologically validated for anxiety testing in rodents. The advantage of the O-maze is that it lacks the ambiguous central square of the traditional plus-maze. The O-maze consisted of a circular infrared platform (outer diameter 120 cm) elevated 80 cm above the floor, featuring two open and two closed segments made of gray plastic. The closed segments were enclosed by walls extending 20 cm above the surface of the maze and covered with a black infrared plexiglas lid. Each test started by placing the mouse into one of the two closed segments. The test lasted 5 min and was recorded using a video camera placed above the O-maze and the EthoVision video tracking software (Noldus IT, Wageningen, The Netherlands). Measurements of distance and time spent in the open and closed segments were analyzed. Between each mouse tests, the 0-maze was cleaned with 30% ethanol.

α-MSH [3] = molecular target: T1, α-MSH; test: ELISA of plasma auto-antibodies reacting with α-MSH; assay type: in vivo
From the text: (§1) Each determination was done in duplicate.

[4] = ClpB immunization in mice: body weight, food intake and feeding pattern (BioDAQ cages); assay type: in vivo
Procedure: All experimental protocols were conducted according to US National Institutes of Health guidelines and EU directives, and animal experiments were approved by the Institutional Ethical Committees. Two-month-old male C57BI6 mice (Janvier Laboratories, L'Arbresle, France) were acclimated to the animal facility for 1 week with 12 h light-dark cycle, lights on at 0700 hours and were kept in standard mouse-holding cages (n=8) each. Mice were fed ad libitum with standard pelleted rodent chow (RM1 diet, SDS, UK) with drinking water always available and were manipulated daily by gentle holding and measuring body weight. During acclimatization, mice were distributed between four cages to obtain the similar mean body weight per mouse per cage. After 1 week of acclimatization, mice from each cage were assigned to one of four study group and received following treatments: (i) Group 1, ClpB immunization (n=8): ClpB protein (Delphi Genetics, Gosselies, Belgium) 50 μg per mouse in 200 μl of 1:1 (vol:vol) of PBS with Complete Freund's Adjuvant (Sigma, St Louis, Mo., USA), intraperitoneally (i.p.); (ii) Group 2, adjuvant injection controls (n=8): 200 μl of Complete Freund's Adjuvant in PBS (1:1 (vol:vol), i.p.); (iii) Group 3, PBS injection controls (n=8): 200 μl of PBS (i.p.); and (iv) Group 4, intact controls (n=8): received no injections, and then all mice were returned to their holding cages. Fifteen days later, mice were given a boost immunization and the following treatments: (i) Group 1 (n=8), ClpB protein (Delphi Genetics) 50 μg per mouse in 200 μl of 1:1 (vol:vol) of PBS with Incomplete Freund's Adjuvant (Sigma) i.p.; (ii) Group 2 (n=8): 200 μl of Incomplete Freund's Adjuvant in PBS (1:1 (vol:vol), i.p.); (iii) Group 3, (n=8): 200 μl of PBS (i.p.); and iv) Group 4, (n=8): received no injections. Next day after the boost, mice were placed individually into the BioDAQ mouse cages (Research Diets, Inc., New Brunswick, N.J., USA) each equipped with an automatic feeding monitor. Food (Serlab, Montataire France) and drinking water were available ad libitum and body weight was measured daily. After 3 days of acclimatization to the BioDAQ cages, mice received the following treatments: Groups 1, 2 and 3 (each n=8), that is, mice that have been immunized with ClpB, injected with adjuvants and with PBS, respectively, all received an acute injection of α-MSH peptide (Bachem AG), 100 μg·kg^−1 body weight in 100 μl of PBS (i.p.) at 1000 hours. The control mice (n=8) received PBS only (i.p.). Feeding data was continuously monitored and analyzed using the BioDAQ data viewer 2.3.07 (Research Diets). For the meal pattern analysis, the inter-meal interval was set at 300 s.

anti-α-MSH IgG = details: 20 and 10 μg of ClpB
Procedure: Following 2D-PAGE, E. coli cytoplasmic proteins were transferred onto Hybond-ECL PVDF membrane (GE Healthcare) via a dry transfer method (Trans Blot Cell, Bio-Rad, USA) and a constant current of 0.8 mA.cm^−2 of the membrane size for 2 h. After transfer, membranes were blocked with 5% (wt:vol) milk (Regilait, France) in phosphate-buffered saline (PBS; 10 mmol·l^−1 […], and 150 mM·l^−1 NaCl) plus 0.05% (vol:vol) Tween 20.

ClpB protein [5] = molecular target: T2, ClpB protein (Escherichia coli, UniProt P63284); details: in vivo
Procedure: Plates were washed (5 min for three times) in PBS with 0.05% Tween 200, pH 7.4, and then incubated overnight at 4° C. with 100 μl of mouse plasma diluted 1:200 in PBS to determine free auto-Ab levels or diluted 1:200 in dissociative 3M NaCl and 1.5M glycine buffer, pH 8.9, to determine total auto-Ab levels. The plates were washed (three times) and incubated with 100 μl of alkaline phosphatase (AP)-conjugated goat antimouse IgG (1:2000) or anti-mouse IgM (1:1000), all obtained from Jackson ImmunoResearch Laboratories, Inc. (West Grove, Pa., USA). Following washing (three times), 100 μl of p-nitrophenyl phosphate solution (Sigma) was added as AP substrate. After 40 min of incubation at room temperature, the reaction was stopped by adding 3 N NaOH. The optical density was determined at 405 nm using a microplate reader Metertech 960 (Metertech Inc., Taipei, Taiwan). Blank optical density values resulting from the reading of plates without addition of plasma samples were subtracted from the sample optical density values. Each determination was done in duplicate.
IgG and IgM antibodies reactive with ClpB were detected by enzyme-linked immunosorbent assay using corresponding anti-mouse or anti-human AP-conjugated antibodies (Jackson ImmunoResearch Laboratories, Inc.) as described above.

ClpB protein [6] = molecular target: T2, ClpB protein; details: ClpB-immunized mice
Procedure: as §2, §3

[7] = molecular target: T3, adrenocorticotropic hormone (Homo sapiens, UniProt P01189); test: ELISA of plasma IgG reacting with adrenocorticotropic hormone; assay type: in vivo; details: ClpB immunization study
T3 construct: purchased Bachem AG
T3 sequence (P01189 138-176 limits assumed): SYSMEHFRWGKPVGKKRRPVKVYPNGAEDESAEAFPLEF
From the text: as §1

[8] = open field, between study groups
[9] = ClpB-immunized mice, last 10 days
[10] = ClpB-immunized mice, α-MSH 100 μg/kg i.p.

T2 sequence (P63284 whole entry): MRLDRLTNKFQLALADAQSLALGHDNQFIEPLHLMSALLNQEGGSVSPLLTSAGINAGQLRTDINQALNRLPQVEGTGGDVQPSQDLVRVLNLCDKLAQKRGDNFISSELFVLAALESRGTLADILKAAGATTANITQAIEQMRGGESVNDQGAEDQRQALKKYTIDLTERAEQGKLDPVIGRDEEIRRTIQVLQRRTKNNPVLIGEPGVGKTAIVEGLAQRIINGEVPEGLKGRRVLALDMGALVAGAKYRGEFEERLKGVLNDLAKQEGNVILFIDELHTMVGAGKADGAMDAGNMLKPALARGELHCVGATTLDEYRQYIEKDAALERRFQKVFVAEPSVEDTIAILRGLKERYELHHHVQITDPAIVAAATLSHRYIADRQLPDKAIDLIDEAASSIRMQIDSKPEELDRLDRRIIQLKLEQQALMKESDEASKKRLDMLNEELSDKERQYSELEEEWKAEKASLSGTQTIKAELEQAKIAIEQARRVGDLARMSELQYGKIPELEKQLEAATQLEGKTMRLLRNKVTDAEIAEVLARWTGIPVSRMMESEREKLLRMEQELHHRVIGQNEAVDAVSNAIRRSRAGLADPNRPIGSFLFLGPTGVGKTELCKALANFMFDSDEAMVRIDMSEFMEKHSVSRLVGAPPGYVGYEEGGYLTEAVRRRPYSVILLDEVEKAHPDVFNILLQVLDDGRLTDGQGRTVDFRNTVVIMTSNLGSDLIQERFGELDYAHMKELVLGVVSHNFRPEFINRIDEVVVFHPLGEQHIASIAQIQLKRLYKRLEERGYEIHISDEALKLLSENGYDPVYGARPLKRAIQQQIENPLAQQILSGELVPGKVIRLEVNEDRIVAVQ

Substance: ClpB: chaperone protein ClpB from E. Coli K12, SEQ ID NO: 1, 857 amino acids; recombinant protein (Delphi Genetics) used for immunization
- affinity of α-MSH-reactive IgG for α-MSH (α-MSH [1]): lower affinities
- time spent in the closed arms of the O-maze ([2]; ClpB-immunized mice compared with all other groups): less time
- distance moved in the closed arms of the O-maze ([2]; ClpB-immunized mice compared with controls): shorter distance
- time spent in the open vs border areas [2, 8]: did not significantly differ
- total locomotor activity [2, 8]: did not significantly differ
- plasma levels of α-MSH IgM auto-Abs (α-MSH [3]; ClpB immunization study, between the groups): did not significantly differ
- plasma levels of α-MSH-reactive IgG (α-MSH [3]; ClpB-immunized mice): Increased
- body weight for a few days after injections ([4]; ClpB 50 μg per mouse i.p. together with adjuvant, C57Bl6 mice): lower
- body weight vs controls ([4]; ClpB-immunized mice, 4 weeks later): +5%
- meal number [4, 9]: did not change
- meal size [4, 9]: increased
- mean daily food intake as compared with other groups ([4]; ClpB-immunized mice, last 10 days of the experiment): +13%
- 24 h food intake following i.p. injection of α-MSH [4, 10]: not affected
- body weight following i.p. injection of α-MSH [4, 10]: not affected
- Western blot revealed with anti-α-MSH IgG (anti-α-MSH IgG): showed a 96-kDa band
- plasma anti-ClpB IgG levels (ClpB protein [5]): strong increase
- plasma levels of anti-ClpB IgG after adsorption with α-MSH (ClpB protein [5]): significantly reduced
- affinity of anti-ClpB IgG (ClpB protein [6]): lower affinities
- plasma adrenocorticotropic hormone-reactive IgG [7]: No significant differences
